Measured values as given in PubChem BioAssay (NCI).
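Compound exposure: 48 hours, 5 concentrations, 96-well plates. The concentration for 50% growth inhibition is given as GI50. TGI marks complete inhibition of growth.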

Key:
Assay in all cases: growth of human tumour cells (NCI), 48 h
NCI-H23 lung = tested on: NCI-H23 lung
A498 renal = tested on: A498 renal
UACC-62 melanoma = tested on: UACC-62 melanoma
KM12 colon = tested on: KM12 colon
CAKI-1 renal = tested on: CAKI-1 renal
OVCAR-3 ovarian = tested on: OVCAR-3 ovarian
HL-60(TB) leukemia = tested on: HL-60(TB) leukemia
SF-268 CNS = tested on: SF-268 CNS
SNB-19 CNS = tested on: SNB-19 CNS
HCT-15 colon = tested on: HCT-15 colon
SF-539 CNS = tested on: SF-539 CNS
CCRF-CEM leukemia = tested on: CCRF-CEM leukemia
MALME-3M melanoma = tested on: MALME-3M melanoma
786-0 renal = tested on: 786-0 renal
OVCAR-5 ovarian = tested on: OVCAR-5 ovarian
DU-145 prostate = tested on: DU-145 prostate
OVCAR-4 ovarian = tested on: OVCAR-4 ovarian
SN12C renal = tested on: SN12C renal
ACHN renal = tested on: ACHN renal
NCI-H460 lung = tested on: NCI-H460 lung
NCI-H226 lung = tested on: NCI-H226 lung
SK-OV-3 ovarian = tested on: SK-OV-3 ovarian
HOP-62 NSCLC = tested on: HOP-62 NSCLC
T-47D breast = tested on: T-47D breast
OVCAR-8 ovarian = tested on: OVCAR-8 ovarian
MDA-MB-231 breast = tested on: MDA-MB-231 breast
UO-31 renal = tested on: UO-31 renal
SK-MEL-5 melanoma = tested on: SK-MEL-5 melanoma
SR leukemia = tested on: SR leukemia

## NC(=O)CC1(O)C=C(Br)C(=O)C(Br)=C1
NCI-H23 lung
  GI50: 8.99 µM
  TGI: 24.6 µM
A498 renal
  GI50: 15.8 µM
  TGI: 29.3 µM
UACC-62 melanoma
  GI50: 4.21 µM
  TGI: 15.8 µM
KM12 colon
  GI50: 13.8 µM
  TGI: 27.2 µM
CAKI-1 renal
  GI50: 940 nM
  TGI: 2960 nM
OVCAR-3 ovarian
  GI50: 2220 nM
  TGI: 5.34 µM
HL-60(TB) leukemia
  GI50: 1850 nM
  TGI: 4.64 µM
SF-268 CNS
  GI50: 9.09 µM
  TGI: 21.2 µM
SNB-19 CNS
  GI50: 18.1 µM
  TGI: 32.6 µM
HCT-15 colon
  GI50: 2650 nM
  TGI: 7.75 µM
SF-539 CNS
  GI50: 2950 nM
  TGI: 9.15 µM
CCRF-CEM leukemia
  GI50: 194 nM
  TGI: 434 nM
MALME-3M melanoma
  GI50: 2120 nM
  TGI: 4.36 µM
786-0 renal
  GI50: 8.76 µM
  TGI: > 35.7 µM
OVCAR-5 ovarian
  GI50: 8.08 µM
  TGI: 21.4 µM
DU-145 prostate
  GI50: 6.05 µM
  TGI: 19 µM
OVCAR-4 ovarian
  GI50: 4.58 µM
  TGI: 15.9 µM
SN12C renal
  GI50: 9.05 µM
  TGI: 23.4 µM
ACHN renal
  GI50: 3.44 µM
  TGI: 12.3 µM
NCI-H460 lung
  GI50: 18.5 µM
  TGI: 37 µM
NCI-H226 lung
  GI50: 20.5 µM
  TGI: 46.3 µM
SK-OV-3 ovarian
  GI50: 17.9 µM
  TGI: 32.3 µM
HOP-62 NSCLC
  GI50: 26.1 µM
  TGI: > 61.2 µM
T-47D breast
  GI50: 2570 nM
  TGI: 7.87 µM
OVCAR-8 ovarian
  GI50: 2880 nM
  TGI: 9.42 µM
MDA-MB-231 breast
  GI50: 6.85 µM
  TGI: 20.2 µM
UO-31 renal
  GI50: 2170 nM
  TGI: 11.2 µM
SK-MEL-5 melanoma
  GI50: 12.5 µM
  TGI: 25.6 µM
SR leukemia
  GI50: 1700 nM
  TGI: 14.2 µM
